Reference: patent US4725683A, “Fluorophenoxyphenoxypropionates and derivatives thereof” (The Dow Chemical Company, priority 1985, dated 1988)

Columns and labels:
Assay type in all cases: in vivo
Barnyard Grass = test: Postemergent activity
Description: (§1) Representative compositions of the present invention were evaluated for the postemergence control of species of plants listed in Table A. In these evaluations, pots of the plant species listed in Table A, grown to a height of about 10 cms, were used. Aqueous spray compositions, containing various amounts of 2-[4-(2-fluoro-4-trifluoromethylphenoxy)-phenoxy]propionic acid methy ester, i.e., 125 ppm, 62.5 ppm, 31.25 ppm, 15.6 ppm, 7.8 ppm and 3.9 ppm, respectively, were applied to separate pots. The spray compositions were made by mixing the active ingredient in acetone to 1/2 the final volume, i.e., twice the final concentration. An equal amount of water was added to the active ingredient/acetone mixture wherein the water contained 0.1 percent by weight of TWEEN® 200 surfactant. The application to the plants was made to the point of run-off and was carried out with conventional spraying equipment. Other pots were sprayed with similar compositions containing no toxicant to serve as controls. Thereafter, the pots were maintained under conditions conducive for plant growth. Two weeks after treatment, the pots were examined for plant growth and evaluated on a scale of 0 to 100 where 0 represents no effect and 100 represents complete kill. The results of the examination of the treated pots are set forth below in Table A.
(§2) Substantially the same procedures as those described in Example A were repeated except that the active ingredients were 2-[4-(4-chloro-2-fluorophenoxy)phenoxy]propionic acid; methyl ester and its R-enantiomer and 2-(4-(4-bromo-2-fluorophenoxy)phenoxy propionic acid; methyl ester and its R enantiomer. The results are listed below in Table B.
(§3) In further operations employing the above general procedures and the indicated test compounds the following results were obtained: […]

Crabgrass = test: Postemergent activity
Description: as §1, §2, §3

Wheat = test: Postemergent activity; settings: Triticum aestivum, post-emergence, 336 h, read-out: % Control
Description: as §1, §2, §3

Wild Oats = test: Postemergent activity; settings: Avena fatua, post-emergence, 336 h; for pest or weed control at 7.8 ppm / pest or weed control at 15.6 ppm / pest or weed control at 62.5 ppm / pest or weed control at 125 ppm / pest or weed control at 250 ppm: read-out: % Control
Description: as §1, §2, §3

Foxtail [1] = test: Postemergent control of plant species
Description: as §1, §3

Foxtail [2] = test: Postemergent control of plant species; settings: 250 ppm

Compound	% Control (Barnyard Grass; 7.8 ppm) [%]	% Control (Barnyard Grass; 15.6 ppm) [%]	% Control (Barnyard Grass; 31.2 ppm) [%]	% Control (Barnyard Grass; 62.5 ppm) [%]	% Control (Barnyard Grass; 125 ppm) [%]	% Control (Barnyard Grass; 250 ppm) [%]	% Control (Crabgrass; 7.8 ppm) [%]	% Control (Crabgrass; 15.6 ppm) [%]	% Control (Crabgrass; 31.2 ppm) [%]	% Control (Crabgrass; 62.5 ppm) [%]	% Control (Crabgrass; 125 ppm) [%]	plant injury at 7.8 ppm (Wheat) [%]	plant injury at 15.6 ppm (Wheat) [%]	plant injury at 31.2 ppm (Wheat) [%]	pest or weed control at 7.8 ppm (Wild Oats) [%]	pest or weed control at 15.6 ppm (Wild Oats) [%]	pest or weed control at 31.2 ppm (Wild Oats) [%]	pest or weed control at 62.5 ppm (Wild Oats) [%]	pest or weed control at 125 ppm (Wild Oats) [%]	pest or weed control at 250 ppm (Wild Oats) [%]	further results
CC(=O)C(C(C)=O)C(=O)C(C)Oc1ccc(Oc2ccc(Br)cc2F)cc1 (centres unmarked)	0	0	0	100	100	100	0	70	100	100	100	0	0	0	0	0	0	0	0	50	% Control (Crabgrass; 250 ppm): 100%; Percent Control (Foxtail [1]; 7.8 ppm): 0%; Percent Control (Foxtail [1]; 15.6 ppm): 0%; Percent Control (Foxtail [1]; 31.2 ppm): 100%; Percent Control (Foxtail [1]; 62.5 ppm): 100%; Percent Control (Foxtail [1]; 125 ppm): 100%; Percent Control (Foxtail [2]): 100%
COC(=O)C=C(OC)C(C)Oc1ccc(Oc2ccc(Br)cc2F)cc1 (centres unmarked)	0	0	0	0	0	0	0	0	20	95	98	0	0	0	0	0	0	0	0	0	% Control (Crabgrass; 250 ppm): 100%; plant injury at 62.5 ppm (Wheat): 0%; plant injury at 125 ppm (Wheat): 0%; plant injury at 250 ppm (Wheat): 0%; Percent Control (Foxtail [1]; 7.8 ppm): 0%; Percent Control (Foxtail [1]; 15.6 ppm): 0%; Percent Control (Foxtail [1]; 31.2 ppm): 0%; Percent Control (Foxtail [1]; 62.5 ppm): 0%; Percent Control (Foxtail [1]; 125 ppm): 0%; Percent Control (Foxtail [2]): 100%
CCOC(=O)CC(O)C(C)Oc1ccc(Oc2ccc(Br)cc2F)cc1 (centres unmarked)	0	0	80	100	100	100	0	20	20	100	100	0	0	0	0	0	0	0	50	50	% Control (Crabgrass; 250 ppm): 100%; plant injury at 62.5 ppm (Wheat): 0%; Percent Control (Foxtail [1]; 7.8 ppm): 0%; Percent Control (Foxtail [1]; 15.6 ppm): 0%; Percent Control (Foxtail [1]; 31.2 ppm): 0%; Percent Control (Foxtail [1]; 62.5 ppm): 100%; Percent Control (Foxtail [1]; 125 ppm): 100%; Percent Control (Foxtail [2]): 100%
CC(=O)CC(O)C(C)Oc1ccc(Oc2ccc(Br)cc2F)cc1 (centres unmarked)	0	0	0	0	0	0	0	0	0	95	95	0	0	0	0	0	0	0	0	0	plant injury at 62.5 ppm (Wheat): 0%; plant injury at 125 ppm (Wheat): 0%; Percent Control (Foxtail [1]; 7.8 ppm): 0%; Percent Control (Foxtail [1]; 15.6 ppm): 0%; Percent Control (Foxtail [1]; 31.2 ppm): 0%; Percent Control (Foxtail [1]; 62.5 ppm): 0%; Percent Control (Foxtail [1]; 125 ppm): 20%; Percent Control (Foxtail [2]): 25%
C=CC(=O)C(C)Oc1ccc(Oc2ccc(Br)cc2F)cc1 (centres unmarked)	0	0	0	0	0	30	0	0	0	100	98	0	0	0	0	0	0	0	0	0	% Control (Crabgrass; 250 ppm): 98%; plant injury at 62.5 ppm (Wheat): 0%; plant injury at 125 ppm (Wheat): 0%; plant injury at 250 ppm (Wheat): 0%; Percent Control (Foxtail [1]; 7.8 ppm): 0%; Percent Control (Foxtail [1]; 15.6 ppm): 0%; Percent Control (Foxtail [1]; 31.2 ppm): 0%; Percent Control (Foxtail [1]; 62.5 ppm): 0%; Percent Control (Foxtail [1]; 125 ppm): 0%; Percent Control (Foxtail [2]): 100%
